Experiment: Chelation test with La^3+ by HPLC
Assay type: physicochemical
Details: FIGS. 1A-1B

| Structure (SMILES) | chelation of La^3+ (shift in HPLC retention time after mixing) |
| --- | --- |
| O=C(O)c1cccc(CN2CCOCCOCCN(C(c3ccccc3)c3cccc(C(=O)O)n3)CCOCCOCC2)n1 (centres unmarked) [TOPA-[C7]-phenyl, 6-((16-((6-carboxypyridin-2-yl)(phenyl)methyl)-1,4,10,13-tetraoxa-7,16-diazacyclooctadecan-7-yl)methyl)picolinic acid] | rapid chelation |
| CC(C)CCC(c1cccc(C(=O)O)n1)N1CCOCCOCCN(Cc2cccc(C(=O)O)n2)CCOCCOCC1 (centres unmarked) [TOPA-[C7]-isopentyl, 6-((16-(1-(6-carboxypyridin-2-yl)-4-methylpentyl)-1,4,10,13-tetraoxa-7,16-diazacyclooctadecan-7-yl)methyl)picolinic acid] | rapid chelation |

From US20220143231A1, “MACROCYCLIC COMPOUNDS AND METHODS OF USE THEREOF” (Janssen Biotech, Inc., priority 2020, published 2022)
